Structures can show the parent of a compound that is named as a salt.

The first experiment concerns hPSC-SCs.
Conditions: not given
Compound `COc1ccc2c(c1)[C@]13CCCC[C@@H]1[C@H](C2)N(C)CC3` displayed a z.score.t of 1.28. As to `COc1cc2c(cc1OC)C(C)NCC2.Cl` (centres unmarked), the z.score.t is 0.3024. For `CN1CCc2cccc3c2[C@H]1Cc1ccc(O)c(O)c1-3.CN1CCc2cccc3c2[C@H]1Cc1ccc(O)c(O)c1-3.Cl.Cl.O`, the z.score.t is recorded as −1.904. On the same count and under the same terms, the figure for `CN(N=O)C(=O)N[C@H]1C(O)O[C@H](CO)[C@@H](O)[C@@H]1O` (mixture of isomers) [Streptozotocin] is 0.03421; for `Cl.NCC(O)c1ccc(O)cc1` (racemic) [(+, −)-Octopamine hydrochloride] it is 0.6574; for `CNCC(O)c1ccc(O)cc1` (racemic) [(+, −)-Synephrine] it is −0.2329. For `O=C(O)C1CCCNC1` (racemic) [(ñ)-Nipecotic acid], the z.score.t is given as −0.7376.

The compound `NCC(CC(=O)O)c1ccc(Cl)cc1` (racemic) [Baclofen (R,S)] gave a z.score.t of 1.088. Same read-out and setting: to `Nc1c2c(nc3ccccc13)CCCC2O.O=C(O)/C=C\C(=O)O` (racemic) [Hydroxytacrine maleate (R,S)] belongs 0.713; to `COc1ccc(CC2c3cc(OC)c(OC)cc3CCN2C)cc1OC` (racemic) [Laudanosine (R,S)], −0.3319; to `CC(=O)NC1CCSC1=O` (racemic) [N-Acetyl-DL-homocysteine Thiolactone], 0.0116. `CN1CCC2(C)c3cc(O)ccc3N(C)C12.O=C(O)/C=C/C(=O)O` (single isomer, unassigned; (-)) [(−)-Eseroline fumarate salt]: the z.score.t is −1.336. The compound `CC(=C(CCO)SSCC1CCCO1)N(C=O)Cc1cnc(C)nc1N` (stereo in doubt) [Fursultiamine Hydrochloride] gave a z.score.t of 1.483. Same read-out and setting: the figure for `C[C@]12CC[C@@H](O)C[C@H]1CC[C@@H]1[C@@H]2CC[C@]2(C)C(=O)CC[C@@H]12` [3-alpha-Hydroxy-5-beta-androstan-17-one] is −0.1014; for `CN1C2CC(=O)CC1C(O)C2` (centres unmarked) [6-Hydroxytropinone] it is −0.3867; for `COc1ccc2c(c1OC)CN1CCc3cc4c(cc3C1C2)OCO4` (centres unmarked) [(d,l)-Tetrahydroberberine] it is 2.041.

In turn, `CCN1C[C@]2(COC)[C@H](O)C[C@H](OC)[C@@]34[C@@H]5C[C@@]6(O)[C@H](OC(=O)c7ccccc7)[C@@H]5[C@@](OC(C)=O)([C@@H]([C@H](OC)[C@H]23)[C@@H]14)[C@@H](O)[C@@H]6OC` [Aconitine] had a z.score.t of −0.2486. Regarding `Nc1ncnc2c1ncn2[C@@H]1O[C@H](COP(=O)(O)O)[C@@H](O)[C@H]1O.O` [Adenosine 5′-monophosphate monohydrate], the z.score.t turned out to be 1.049. In the case of `C[C@]12CCC(=O)C=C1CC[C@@H]1[C@@H]2C(=O)C[C@]2(C)C(=O)CC[C@@H]12` [Adrenosterone], the z.score.t is recorded as 1.101.

For the compound `CC[C@H]1[C@@H]2C[C@H]3[C@@H]4N(C)c5ccccc5[C@]45C[C@@H]([C@H]2[C@H]5O)N3[C@@H]1O` [Ajmaline], the z.score.t worked out at 0.1767. On to `CCCSc1ccc2nc(NC(=O)OC)[nH]c2c1` [Albendazole], for which the z.score.t is reported as −1.079. For the compound `CCC(=O)OCC(=O)[C@@]1(OC(=O)CC)[C@H](C)C[C@H]2[C@H]3[C@H]([C@@H](O)C[C@@]21C)[C@@]1(C)C=CC(=O)C=C1C[C@H]3Cl` [Alclometasone dipropionate], the z.score.t is on record as 1.456. The same measure, in the same setting: to `C=CC[N@@+]12CC[C@@]34c5ccccc5N5/C=C6/[C@H]7C[C@H]8[C@@]9(CC[N@@+]8(CC=C)C/C7=C/CO)c7ccccc7N(/C=C(/[C@@H](C[C@@H]31)/C(=C\CO)C2)[C@H]54)[C@@H]69.[Cl-].[Cl-]` [Alcuronium chloride] belongs −0.8925; to `CC(=O)OCC(=O)[C@H]1CC[C@H]2[C@@H]3CC[C@H]4C[C@H](O)CC[C@]4(C)[C@H]3C(=O)C[C@]12C` [Alfadolone acetate], 0.3651.

Staying with this experiment, now noted: HTS viability of hPSC-SCs in the presence of 30 mM glucose; Prestwick library; Table S4.
For the compound `Cc1ccc(Cl)c(Nc2ccccc2C(=O)O)c1Cl`, the z.score.t is −1.427.

As to `CC(C)NCC(O)c1cc(O)cc(O)c1.CC(C)NCC(O)c1cc(O)cc(O)c1.O=S(=O)(O)O` (centres unmarked), the z.score.t came out at 0.4451.

As for `O=C(O)Cc1cc(I)c(Oc2ccc(O)c(I)c2)c(I)c1`, the z.score.t was 0.4486. `CN(Cc1cnc2nc(N)nc(N)c2n1)c1ccc(C(=O)N[C@@H](CCC(=O)O)C(=O)O)cc1` (racemic) [Amethopterin (R,S)]: the z.score.t is recorded as 0.3845. Take `CC(=O)NC(CC(=O)O)C(=O)O` (racemic) [Aspartic acid, N-acetyl (R,S)]: the z.score.t is on record as 0.006455. The same measure, in the same setting: to `O.Oc1cc(O)c2c(c1)OC(c1ccc(O)c(O)c1)C(O)C2` (racemic) [Catechin-(+, −) hydrate] belongs 0.2361. `OCC(O)CN1CCN(c2ccccc2)CC1` (racemic) [Dropropizine (R,S)]: the z.score.t came to 0.7162. On to `COCCc1ccc(OCC(O)CNC(C)C)cc1.COCCc1ccc(OCC(O)CNC(C)C)cc1.O=C(O)C(O)C(O)C(=O)O` (racemic) [Metoprolol-(+, −) (+)-tartrate salt], for which the z.score.t is 1.223. With `CC(C)NCC(O)c1ccc(O)c(O)c1.Cl` (single isomer, unassigned; (-)) [(−)-Isoproterenol hydrochloride], the z.score.t is listed as −0.1043. With `CC(=O)NC1[C@@H](O)OC(CO)[C@@H](O)[C@H]1O[C@H](C)C(=O)O` (stereo in doubt) [Muramic acid, N-acetyl], the z.score.t was determined as 1.616.

For `Nc1ccccc1S(N)(=O)=O` [2-Aminobenzenesulfonamide], the z.score.t was 1.43. On to `Clc1cnccn1` [2-Chloropyrazine], for which the z.score.t was found to be 0.2112. With `CC(=O)Nc1cc2ccccc2oc1=O` [3-Acetamidocoumarin], the z.score.t is recorded as −1.551. In the case of `CC(=O)c1cc2ccccc2oc1=O` [3-Acetylcoumarin], the z.score.t is recorded as −0.7757. `c1coc(CNc2ncnc3nc[nH]c23)c1` [6-Furfurylaminopurine]: the z.score.t is −0.7183. Regarding `CC(C)(C)NC[C@@H](O)COc1cccc2c1CCCC2=O.Cl` [(+) -Levobunolol hydrochloride], the z.score.t came to 1.281. For `CC(C)NC[C@@H](O)c1ccc(O)c(O)c1.O=C(O)C(O)C(O)C(=O)O` [(+)-Isoproterenol (+)-bitartrate salt], the z.score.t is 0.1019. Consider `COc1ccc2cc([C@@H](C)C(=O)[O-])ccc2c1.[Na+]` [(R) -Naproxen sodium salt], for which the z.score.t is given as −0.3895. Consider `CC(C)NC[C@@H](O)COc1ccc(CC(N)=O)cc1` [(R)-(+)-Atenolol], for which the z.score.t is −0.9395.

For the compound `CC(C)NC[C@@H](O)COc1cccc2ccccc12.Cl` [(R)-Propranolol hydrochloride], the z.score.t is −0.04682. In the case of `N[C@H]1CONC1=O` [(S)-(−)-Cycloserine], the z.score.t is −0.3729. For `CC(C)(C)NC[C@H](O)COc1cccc2c1CCCC2=O.Cl` [(−) -Levobunolol hydrochloride], the z.score.t was determined as 0.8283.

Take `C=C[C@H]1CN2CC[C@H]1C[C@H]2[C@H](O)c1ccnc2ccccc12` [(−)-Cinchonidine]: the z.score.t turned out to be 1.595. Still for that read-out and setting: the figure for `COc1ccc(-c2cc(=O)c3c(O)cc(O)cc3o2)cc1` [Acacetin] is −0.03362; for `CCCC(=O)Nc1ccc(OCC(O)CNC(C)C)c(C(C)=O)c1` (centres unmarked) [Acebutolol hydrochloride] it is 0.3206; for `O=C(O)COC(=O)Cc1ccccc1Nc1c(Cl)cccc1Cl` [Aceclofenac] it is 0.08508. On the same count and under the same terms, the figure for `COc1ccc2c(c1)c(CC(=O)OCC(=O)O)c(C)n2C(=O)c1ccc(Cl)cc1` [Acemetacin] is −1.873; for `CC(=O)CC(c1ccc([N+](=O)[O-])cc1)c1c(O)c2ccccc2oc1=O` (centres unmarked) [Acenocoumarol] it is −0.2425. Consider `CC(=O)Nc1ccc(O)cc1` [Acetaminophen], for which the z.score.t was −0.3023. For the compound `CC(=O)Nc1nnc(S(N)(=O)=O)s1` [Acetazolamide], the z.score.t is 0.8639.

With `CC(=O)c1ccc(S(=O)(=O)NC(=O)NC2CCCCC2)cc1` [Acetohexamide], the z.score.t worked out at 0.5856. Still for that read-out and setting: the figure for `CC(=O)c1ccc2c(c1)N(CCCN(C)C)c1ccccc1S2.O=C(O)/C=C\C(=O)O` [Acetopromazine maleate salt] is 0.1979. As for `CC(=O)Oc1ccccc1C(=O)Oc1ccccc1C(=O)O` [Acetylsalicylsalicylic acid], the z.score.t worked out at 0.3922. The same measure, in the same setting: to `Nc1nc2c(ncn2COCCO)c(=O)[nH]1` [Acyclovir] belongs 0.2916. Same read-out and setting: the figure for `NC12CC3CC(CC(C3)C1)C2.NC12CC3CC(CC(C3)C1)C2.O=C(O)/C=C/C(=O)O` [Adamantamine fumarate] is −0.4942; for `CCN(CC)CCOC(=O)C(c1ccccc1)c1ccccc1` [Adiphenine hydrochloride] it is −0.765. Consider `COC(=O)C1=CO[C@@H](C)[C@H]2CN3CCc4c([nH]c5ccccc45)[C@@H]3C[C@H]12.Cl` [Ajmalicine hydrochloride], for which the z.score.t is recorded as −0.6111.

As to `CCCCC(CC)CNC(=N)NC(=N)NCCCCCCNC(=N)NC(=N)NCC(CC)CCCC` (centres unmarked) [Alexidine dihydrochloride], the z.score.t is recorded as −1.733. Turning to `COc1cc2nc(N(C)CCCNC(=O)C3CCCO3)nc(N)c2cc1OC` (centres unmarked) [Alfuzosin hydrochloride], the z.score.t is listed as −1.061. Take `C=CCN1CCCC1CNC(=O)c1cc2[nH]nnc2cc1OC` (centres unmarked) [Alizapride HCl]: the z.score.t came out at 0.5437. Take `NC(=O)NC1NC(=O)NC1=O` (centres unmarked) [Allantoin]: the z.score.t was 0.8036. Consider `C=CCc1ccccc1OCC(O)CNC(C)C` (centres unmarked) [Alprenolol hydrochloride], for which the z.score.t was −0.2572. On to `CCCCC[C@H](O)/C=C/[C@H]1[C@H](O)CC(=O)[C@@H]1CCCCCCC(=O)O` [Alprostadil], for which the z.score.t was found to be 0.3375. For `C=CCSCC1Nc2cc(Cl)c(S(N)(=O)=O)cc2S(=O)(=O)N1` (centres unmarked) [Althiazide], the z.score.t is recorded as −0.1239.

Values taken from patent publication US20260053861A1, “CELL COMPOSITIONS AND METHODS OF USING THE SAME” (THE REGENTS OF THE UNIVERSITY OF CALIFORNIA, priority 2022, published 2026).
